Data from US20250026748A1, “N-(5-SUBSTITUTED-[(1,3,4-THIADIAZOLYL) OR (THIAZOLYL)])(SUBSTITUTED)CARBOXAMIDE COMPOUNDS AND USE THEREOF FOR INHIBITING HUMAN POLYMERASE THETA” (Repare Therapeutics Inc., priority 2021, published 2025).

Biological target: PolQ ATPase enzyme (1-894) (Homo sapiens (Human), UniProt O75417)
Experiment: Polθ ATPase enzymatic assay (0.5 nM enzyme concentration), ADP-Glo
Format: biochemical
Conditions: average IC50; 0.5 nM PolQ ATPase enzyme (1-894)
How it was run: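 Enzyme (0.5 nM) pre-incubated 15 min at rt with 10-point inhibitor series in 50 mM Tris pH 7.5, 10% glycerol, 5 mM DTT, 10 mM MgCl2, 0.1 mg/ml BSA; reaction started with 20 nM fork DNA and 100 μM ATP, run 180 min at rt. ADP-Glo luminescence; IC50 from 4-parameter variable-slope fit.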

Chain of PolQ ATPase enzyme (1-894) (O75417 1-894): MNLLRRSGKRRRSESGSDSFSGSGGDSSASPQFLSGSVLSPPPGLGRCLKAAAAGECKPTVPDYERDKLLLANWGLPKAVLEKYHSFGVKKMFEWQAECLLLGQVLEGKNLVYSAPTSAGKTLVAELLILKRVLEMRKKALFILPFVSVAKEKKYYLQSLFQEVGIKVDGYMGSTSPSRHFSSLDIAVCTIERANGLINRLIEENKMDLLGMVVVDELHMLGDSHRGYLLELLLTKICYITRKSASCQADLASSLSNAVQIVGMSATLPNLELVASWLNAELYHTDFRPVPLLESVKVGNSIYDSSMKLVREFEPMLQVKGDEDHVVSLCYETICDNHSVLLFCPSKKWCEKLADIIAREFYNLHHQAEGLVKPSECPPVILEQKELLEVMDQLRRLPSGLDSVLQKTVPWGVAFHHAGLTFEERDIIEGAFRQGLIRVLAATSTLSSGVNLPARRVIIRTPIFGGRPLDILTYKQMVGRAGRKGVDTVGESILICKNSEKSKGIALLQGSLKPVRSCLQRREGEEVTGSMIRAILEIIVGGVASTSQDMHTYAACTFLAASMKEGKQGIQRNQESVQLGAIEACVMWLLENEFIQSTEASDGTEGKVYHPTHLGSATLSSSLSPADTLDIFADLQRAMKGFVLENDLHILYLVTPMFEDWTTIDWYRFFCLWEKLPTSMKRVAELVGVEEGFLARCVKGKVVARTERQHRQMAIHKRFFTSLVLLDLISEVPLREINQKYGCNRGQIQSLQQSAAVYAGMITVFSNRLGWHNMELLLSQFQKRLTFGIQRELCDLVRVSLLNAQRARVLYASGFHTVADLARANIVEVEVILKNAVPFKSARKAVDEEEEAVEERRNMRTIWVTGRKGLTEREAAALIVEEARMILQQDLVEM

| Compound | IC50 [nM] |
| --- | --- |
| COc1cnc(Cl)cc1-c1cn(CC(=O)N2CCOCC2)c(=O)cc1C(=O)Nc1nnc(C#CC2CC2)s1 [Compound 347] | 3.4 |
| COc1cnc(C(F)F)cc1-c1cc(N2CCC(C)(C)CC2=O)ncc1C(=O)Nc1nnc(C#CC2CC2)s1 [Compound 353] | 0.49 |
| COc1cnc(C(F)F)cc1-c1cc(-c2nnc(C)o2)ncc1C(=O)Nc1nnc(C#CC2CC2)s1 [Compound 354] | 0.27 |
| COc1cnc(C(F)F)cc1-c1cc(-c2cnn(C3CCOCC3)c2)ncc1C(=O)Nc1nnc(C#CC2CC2)s1 [Compound 355] | 0.3 |
| COc1cnc(C(F)F)cc1-c1cc(N2CC3(COC3)CC2=O)ncc1C(=O)Nc1nnc(C#CC2CC2)s1 [Compound 359] | 1.7 |
| COc1cnc(C(F)F)cc1-c1cc(N2CC3(CCOCC3)CC2=O)ncc1C(=O)Nc1nnc(C#CC2CC2)s1 [Compound 360] | 7.2 |
| COc1cnc(C(F)F)cc1-c1cc(C2C[C@@H]2C(=O)N(C)C)ncc1C(=O)Nc1nnc(C#CC2CC2)s1 (stereo partly drawn) [Compound 361] | 1.9 |
| COc1cnc(C(F)F)cc1-c1cc(C2C[C@@H]2C(=O)N(C)C)ccc1C(=O)Nc1nnc(C#CC2CC2)s1 (stereo partly drawn) [Compound 362] | 1.4 |
| COc1cnc(C(F)F)cc1-c1cc(N2CCNCC2=O)ncc1C(=O)Nc1nnc(C#CC2CC2)s1 [Compound 364] | 0.559 |
| COc1cnc(C(F)F)cc1-c1cc(N2C(=O)[C@H]3CC[C@@H]2C3)ncc1C(=O)Nc1nnc(C#CC2CC2)s1 [Compound 365] | 100 |
| COc1cnc(C(F)F)cc1-c1cc(N2CCN(C(C)=O)CC2)ccc1C(=O)Nc1nnc(C#CC2CC2)s1 [Compound 366] | 3 |
| COc1cnc(C(F)F)cc1-c1cc(N2CCN(C)C(C)(C)C2=O)ncc1C(=O)Nc1nnc(C#CC2CC2)s1 [Compound 367] | 0.27 |
| COc1cnc(C(F)F)cc1-c1cc(N2C(=O)[C@@H]3CC[C@H]2C3)ncc1C(=O)Nc1nnc(C#CC2CC2)s1 [Compound 368] | 7.1 |
| COc1cnc(C(F)F)cc1-c1cc(-c2cc(C#N)n(C)n2)ncc1C(=O)Nc1nnc(C#CC2CC2)s1 [Compound 371] | 8.1 |
| COc1cnc(C(F)F)cc1-c1cc(-c2cnn(C3COC3)c2)ccc1C(=O)Nc1nnc(C#CC2CC2)s1 [Compound 372] | 0.39 |
| C#C[C@H]1CC1c1nnc(NC(=O)c2ccc(-c3nnc(C)o3)cc2-c2cc(C(F)F)ncc2OC)s1 (stereo partly drawn) [Compound 373] | 4.6 |
| COc1cnc(C(F)F)cc1-c1cc(-c2nnc(C)o2)ccc1C(=O)Nc1nc(C#CC2CC2)cs1 [Compound 374] | > 100 |
| COc1cnc(C(F)F)cc1-c1cc(-c2nnc(C)o2)ccc1C(=O)Nc1nc(C#N)c(C#CC2CC2)s1 [Compound 376] | 3 |
| COc1cnc(C(F)F)cc1-c1cc(N2CCOC[C@@H]2C)ncc1C(=O)Nc1nnc(C#CC2CC2)s1 [Compound 377] | > 100 |
| COc1cnc(C(F)F)cc1-c1cc(N2CCOC[C@H]2C)ncc1C(=O)Nc1nnc(C#CC2CC2)s1 [Compound 379] | 18 |
| COc1cnc(C(F)F)cc1-c1cc(N2CC(C)(C)CC2=O)ncc1C(=O)Nc1nnc(C#CC2CC2)s1 [Compound 380] | 11 |
| COc1cnc(C(F)F)cc1-c1nc(-c2nnc(C)o2)ccc1C(=O)Nc1nnc(C#CC2CC2)s1 [Compound 391] | > 100 |
| COc1cnc(C(F)F)cc1-c1cc(N2CCCCCC2=O)ncc1C(=O)Nc1nnc(C#CC2CC2)s1 [Compound 394] | < 0.25 |
| COc1cnc(C(F)F)cc1-c1cc(N2CCC3(CCC3)CC2=O)ncc1C(=O)Nc1nnc(C#CC2CC2)s1 [Compound 395] | 0.25 |
| C#CC1CC1c1nnc(NC(=O)c2ccc(N3CCOCC3=O)cc2-c2cc(C(F)F)ncc2OC)s1 (stereo not drawn) [Compound 396] | 10 |
| C#CC1CC1c1nnc(NC(=O)c2ccc(N3CCOCC3=O)cc2-c2cc(C(F)F)ncc2OC)s1 (stereo not drawn) [Compound 397] | 0.39 |
| COc1cnc(C(F)F)cc1-c1cc(-c2cnn(C3CCNCC3)c2)ncc1C(=O)Nc1nnc(C#CC2CC2)s1 [Compound 398] | 2.1 |
| COc1cnc(C(F)F)cc1-c1cc(-c2cnn(C3CCN(C)CC3)c2)ncc1C(=O)Nc1nnc(C#CC2CC2)s1 [Compound 399] | 1.5 |

Continued, values first:

| IC50 [nM] | Compound |
| --- | --- |
| < 0.25 | COc1cnc(C(F)F)cc1-c1cc(-c2cnn(C(F)F)c2)ncc1C(=O)Nc1nnc(C#CC2CC2)s1 [Compound 349] |
| < 0.25 | COc1cnc(C(F)F)cc1-c1cc(-c2ccn(C(F)F)n2)ncc1C(=O)Nc1nnc(C#CC2CC2)s1 [Compound 350] |
| < 0.25 | COc1cnc(C(F)F)cc1-c1cc(-c2nn(C)cc2C)ncc1C(=O)Nc1nnc(C#CC2CC2)s1 [Compound 351] |
| < 0.25 | COc1cnc(C(F)F)cc1-c1cc(N2CCCC(F)C2=O)ncc1C(=O)Nc1nnc(C#CC2CC2)s1 (stereo not drawn) [Compound 352] |
| < 0.25 | COc1cnc(C(F)F)cc1-c1cc(N2CCn3cncc3C2=O)ncc1C(=O)Nc1nnc(C#CC2CC2)s1 [Compound 356] |
| < 0.25 | COc1cnc(C(F)F)cc1-c1cc(N2CCN(C(C)=O)CC2=O)ncc1C(=O)Nc1nnc(C#CC2CC2)s1 [Compound 357] |
| < 0.25 | COC(=O)N1CCN(c2cc(-c3cc(C(F)F)ncc3OC)c(C(=O)Nc3nnc(C#CC4CC4)s3)cn2)C(=O)C1 [Compound 358] |
| < 0.25 | COc1cnc(C(F)F)cc1-c1cc(C2C[C@H]2C(=O)N(C)C)ccc1C(=O)Nc1nnc(C#CC2CC2)s1 (stereo partly drawn) [Compound 363] |
| < 0.25 | [2H]C([2H])([2H])Oc1cnc(C(F)F)cc1-c1cc(-c2ccn(C)n2)ncc1C(=O)Nc1nnc(C#CC2CC2)s1 [Compound 375] |
| < 0.25 | COc1cnc(C(F)F)cc1-c1cc(C#CC2CCOCC2)ncc1C(=O)Nc1nnc(C#Cc2cc(C)[nH]n2)s1 [Compound 378] |
| < 0.25 | COc1cnc(C(F)F)cc1-c1cc(N2CC3CC(C3)C2=O)ncc1C(=O)Nc1nnc(C#CC2CC2)s1 [Compound 381] |
| < 0.25 | COc1cnc(C(F)F)cc1-c1cc(N2CCN(C(=O)OC(C)C)CC2=O)ncc1C(=O)Nc1nnc(C#CC2CC2)s1 [Compound 382] |
| < 0.25 | COc1cnc(C(F)F)cc1-c1cc(N2CC[C@H]3C[C@H]3C2=O)ncc1C(=O)Nc1nnc(C#CC2CC2)s1 [Compound 383] |
| < 0.25 | COc1cnc(C(F)F)cc1-c1cc(N2CC[C@@H]3C[C@@H]3C2=O)ncc1C(=O)Nc1nnc(C#CC2CC2)s1 [Compound 384] |
| < 0.25 | COc1cnc(C(F)F)cc1-c1cc(N2CCN(CC3CC3)CC2=O)ncc1C(=O)Nc1nnc(C#CC2CC2)s1 [Compound 386] |
| < 0.25 | COc1cnc(C(F)F)cc1-c1cc(-n2ccc(C)cc2=O)ncc1C(=O)Nc1nnc(C#CC2CC2)s1 [Compound 387, N-(5-(cyclopropylethynyl)-1,3,4-thiadiazol-2-yl)-2″-(difluoromethyl)-5″-methoxy-4-methyl-2-oxo-2H-[1,2′:4′,4″-terpyridine]-5′-carboxamide] |
| < 0.25 | COc1cnc(C(F)F)cc1-c1cc(N2CC3CC3CC2=O)ncc1C(=O)Nc1nnc(C#CC2CC2)s1 (stereo not drawn) [Compound 388] |
| < 0.25 | COc1cnc(C(F)F)cc1-c1cc(N2CC(C)CCC2=O)ncc1C(=O)Nc1nnc(C#CC2CC2)s1 (stereo not drawn) [Compound 389] |
| < 0.25 | COc1cnc(C(F)F)cc1-c1cc(N2CCCC(C)C2=O)ncc1C(=O)Nc1nnc(C#CC2CC2)s1 (stereo not drawn) [Compound 390] |
| < 0.25 | COc1cnc(C(F)F)cc1-c1cc(-c2cnn(S(C)(=O)=O)c2)ncc1C(=O)Nc1nnc(C#CC2CC2)s1 [Compound 393] |
